ChEMBL document CHEMBL5532655, “Discovery of (R)-4-(8-methoxy-2-methyl-1-(1-phenylethy)-1H-imidazo[4,5-c]quinnolin-7-yl)-3,5-dimethylisoxazole as a potent and selective BET inhibitor for treatment of acute myeloid leukemia (AML) guided by FEP calculation” (Eur J Med Chem, 2024)

Legend:
[1] = Volume of distribution at steady state in Sprague-Dawley rat at 1 mg/kg,iv administration measured upto 24 hrs by LC-MS/MS analysis; assay type: ADME, organism-based; details: in vivo, read-out: Vdss
[2] = Tmax in Sprague-Dawley rat at 10 mg/kg,po administration measured upto 24 hrs by LC-MS/MS analysis; assay type: ADME, organism-based; details: in vivo
MV4-11 = test: Induction of cell cycle arrest in human MV4-11 cells assessed as accumulation of cells at S phase at 0.625 uM incubated for 24 hrs by propidium iodide staining flow cytometric analysis (reference value: 43.94 %); assay type: functional

Vd [1]: 0.6 L/kg | Tmax [2]: 1 h
SMILES: COc1cc2c(cc1-c1c(C)noc1C)ncc1nc(C)n([C@H](C)c3ccccc3)c12
Activity (MV4-11): 44.55%
